The term IC50 denotes the concentration at which inhibition is half-maximal. As usually defined, the Ki is the equilibrium dissociation constant of an inhibitor or competing ligand from its target.

The text below walks through data of patent publication US20210130401A1, “PEPTIDOMIMETIC INHIBITORS OF THE WDR5-MLL INTERACTION” (THE REGENTS OF THE UNIVERSITY OF MICHIGAN, priority 2017, published 2021).

In test [1] the test system is MOLM-13 leukemia cells carrying MLL-AF9 fusion. Kind of test: cell viability assay (WST-8), MOLM-13. It counts as cell-based. As to conditions: Homo sapiens, MOLM-13, 96 h.
Method: To assess cell viability, MOLM-13 leukemia cells carrying MLL-AF9 fusion, MV4;11 leukemia cells carrying MLL-AF4 fusion or HL-60 leukemia cells carrying no MLL fusion were seeded 1×10^4 cell/well in 96-well plates and treated with an inhibitor for 4 days at different concentrations, in culture media containing 0.2% DMSO as the final concentration. Cell viability was determined using the WST-8 cell proliferation assay kit (Dojindo Molecular Technologies) according to manufacturer's instructions. Three independent experiments in triplicates were performed.
Another test concerns the target T1, WDR5 (Homo sapiens, UniProt P61964).
T1 construct: N-terminal His-tagged WDR5 protein (residues 24-334), named WDR5Δ23; made in house; host or cells: E. coli Rosetta 2 (DE3)
As to the kind of experiment: fluorescence polarization (FP) based competitive binding assay to WDR5 protein. In general terms: Polarisation of emitted light reports the rotation of a fluorescent probe.

Where two headings read alike, the source gives them in different places. Starred links: 1 amine or outer side, 2 acyl side, 3 side chain; linkers in the order of their positions; H or OH if unused. Positions of bridges follow the written chain, without caps; N, C: chain ends. Non-standard residues stand in square brackets, D forms with d. Residues, ends and D or L forms follow the SMILES beside them. *: point of attachment. dαMeLys(Me) = CN(CCCC[C@@](C)(N[*:1])C(=O)[*:2])[*:3]; dαMeDab = C[C@](CCN[*:3])(N[*:1])C(=O)[*:2]; dPhg(2-OMe) = COc1ccccc1[C@@H](N)C(=O)O; d1Nal = N[C@H](Cc1cccc2ccccc12)C(=O)O; dPhg = N[C@@H](C(=O)O)c1ccccc1; Isobutyryl = CC(C)C(=O)*; dDap = NC[C@@H](N)C(=O)O; Ac5c = NC1(C(=O)O)CCCC1; Abu = CC[C@H](N)C(=O)O

Method for WDR5: The plates were incubated at room temperature on a shaker for 3h, and then the mP values were measured using the Tecan Infinite M-1000 plate reader (Tecan U.S., Research Triangle Park, N.C.).

Regarding `CC[C@@H]1NC(=O)[C@H](CCCNC(=N)N)NC(=O)[C@](C)(NC(=O)C(C)C)CCNC(=O)[C@@H](Cc2cccc3ccccc23)NC1=O` [Cpd. No. 58, N-((3R,6S,9S,12R)-6-ethyl-9-(3-guanidinopropyl)-12-methyl-3-(naphthalen-1-ylmethyl)-2,5,8,11-tetraoxo-1,4,7,10-tetraazacyclotetradecan-12-yl)isobutyramide] (Isobutyryl-[dαMeDab]R[Abu][d1Nal]; lactam 1-C), the IC50 in test [1] (read-out: MOLM-13 IC50 (μM)) was 2.37 µM.
On to `CC[C@@H]1NC(=O)[C@H](CCCNC(=N)N)NC(=O)[C@](C)(NC(=O)C(C)C)CCCCN(C)C(=O)[C@@H](c2ccccc2)NC1=O` [Cpd. No. 65, N-((3R,6S,9S,12R)-6-ethyl-9-(3-guanidinopropyl)-1,12-dimethyl-2,5,8,11-tetraoxo-3-phenyl-1,4,7,10-tetraazacyclohexadecan-12-yl)isobutyramide] (Isobutyryl-[dαMeLys(Me)]R[Abu][dPhg]; lactam 1-C), for which, on WDR5, the IC50 was 1.6 ± 0.3 nM and the Ki was < 1 nM.
The like results for `CC[C@@H]1NC(=O)[C@H](CCCNC(=N)N)NC(=O)[C@](C)(NC(=O)C(C)C)CCCCN(C)C(=O)[C@@H](c2ccc(Cl)cc2)NC1=O` [Cpd. No. 67, N-((3R,6S,9S,12R)-3-(4-chlorophenyl)-6-ethyl-9-(3-guanidinopropyl)-1,12-dimethyl-2,5,8,11-tetraoxo-1,4,7,10-tetraazacyclohexadecan-12-yl)isobutyramide] were, in that order, 1.5 ± 0.9 nM and < 1 nM.
As for `CC[C@@H]1NC(=O)[C@H](CCCNC(=N)N)NC(=O)[C@H](NC(=O)C(C)C)CNC(=O)[C@@H](c2ccccc2)NC1=O` [Cpd. No. 71, N-((3R,6S,9S,12R)-6-ethyl-9-(3-guanidinopropyl)-2,5,8,11-tetraoxo-3-phenyl-1,4,7,10-tetraazacyclotridecan-12-yl)isobutyramide] (Isobutyryl-[dDap]R[Abu][dPhg]; lactam 1-C), the Ki at WDR5 (calculated from IC50 by published equation, read-out: Binding Affinity to WDR5 Ki ± SD) is 242 ± 33 nM. In addition, the IC50 at WDR5 (read-out: Binding Affinity to WDR5 IC50 ± SD) came out at 1190 ± 160 nM.
For `CC[C@@H]1NC(=O)[C@H](CCCNC(=N)N)NC(=O)[C@](C)(NC(=O)C(C)C)CCNC(=O)[C@@](C)(c2ccccc2)NC1=O` [Cpd. No. 78, N-((3R,6S,9S,12R)-6-ethyl-9-(3-guanidinopropyl)-3,12-dimethyl-2,5,8,11-tetraoxo-3-phenyl-1,4,7,10-tetraazacyclotetradecan-12-yl)isobutyramide], in test [1] (read-out: MOLM-13 IC50 (μM)), the concentration for half-maximal inhibition (IC50) was > 10 µM.
On the same count and under the same terms, as for `CC[C@@H]1NC(=O)[C@H](CCCNC(=N)N)NC(=O)[C@](C)(NC(=O)C(C)C)CCNC(=O)[C@@H](c2cccc3ccccc23)NC1=O` [Cpd. No. 81, N-((3R,6S,9S,12R)-6-ethyl-9-(3-guanidinopropyl)-12-methyl-3-(naphthalen-1-yl)-2,5,8,11-tetraoxo-1,4,7,10-tetraazacyclotetradecan-12-yl)isobutyramide], the figure is 1.29 µM.
Turning to `CC[C@@H]1NC(=O)[C@H](CCCNC(=N)N)NC(=O)[C@](C)(NC(=O)C(C)C)CCNC(=O)[C@@H](c2ccccc2Cl)NC1=O` [Cpd. No. 83, N-((3R,6S,9S,12R)-3-(2-chlorophenyl)-6-ethyl-9-(3-guanidinopropyl)-12-methyl-2,5,8,11-tetraoxo-1,4,7,10-tetraazacyclotetradecan-12-yl)isobutyramide], the IC50 in test [1] (read-out: MOLM-13 IC50 (μM)) amounted to 2.6 µM.
Same read-out and setting: as for `CC(C)C(=O)N[C@]1(C)CCNC(=O)[C@@H](c2ccccc2)NC(=O)C2(CCCC2)NC(=O)[C@H](CCCNC(=N)N)NC1=O` [Cpd. No. 86, N-((8S,11R,16R)-8-(3-guanidinopropyl)-11-methyl-7,10,15,18-tetraoxo-16-phenyl-6,9,14,17-tetraazaspiro[4.13]octadecan-11-yl)isobutyramide] (Isobutyryl-[dαMeDab]R[Ac5c][dPhg]; lactam 1-C), the figure is > 10 µM; as for `CC[C@@H]1NC(=O)[C@H](CCCNC(N)NC)NC(=O)[C@](C)(NC(=O)C(C)C)CCNC(=O)[C@@H](CC2CCCCC2)NC1=O` (stereo partly drawn) [Cpd. No. 87, N-((3R,6S,9S,12R)-9-(3-((amino(methylamino)methyl)amino)propyl)-3-(cyclohexylmethyl)-6-ethyl-12-methyl-2,5,8,11-tetraoxo-1,4,7,10-tetraazacyclotetradecan-12-yl)isobutyramide], 0.46 µM.
`CC[C@H](C)[C@@H]1NC(=O)[C@H](CCCNC(=N)N)NC(=O)[C@](C)(NC(=O)C(C)C)CCNC(=O)[C@@H](c2ccccc2)NC1=O` [Cpd. No. 90, N-((3R,6S,9S,12R)-6-((S)-sec-butyl)-9-(3-guanidinopropyl)-12-methyl-2,5,8,11-tetraoxo-3-phenyl-1,4,7,10-tetraazacyclotetradecan-12-yl)isobutyramide] (Isobutyryl-[dαMeDab]RI[dPhg]; lactam 1-C): the IC50 in test [1] (Table 2A, 4 days treatment, read-out: MOLM-13 IC50) was > 10 µM.
For `CC[C@@H]1NC(=O)[C@H](CCCNC2=NCC(F)(F)CN2)NC(=O)[C@](C)(NC(=O)C(C)C)CCNC(=O)[C@@H](CC2CCCCC2)NC1=O` [Cpd. No. 95, N-((3R,6S,9S,12R)-3-(cyclohexylmethyl)-9-(3-((5,5-difluoro-1,4,5,6-tetrahydropyrimidin-2-yl)amino)propyl)-6-ethyl-12-methyl-2,5,8,11-tetraoxo-1,4,7,10-tetraazacyclotetradecan-12-yl)isobutyramide], in test [1] (read-out: MOLM-13 IC50 (μM)), the IC50 was > 10 µM.
For `CC[C@@H]1NC(=O)[C@H](CCCNC2=NCC(C)(C)CN2)NC(=O)[C@](C)(NC(=O)C(C)C)CCNC(=O)[C@@H](CC2CCCCC2)NC1=O` [Cpd. No. 96, N-((3R,6S,9S,12R)-3-(cyclohexylmethyl)-9-(3-((5,5-dimethyl-1,4,5,6-tetrahydxopyrimidin-2-yl)amino)propyl)-6-ethyl-12-methyl-2,5,8,11-tetraoxo-1,4,7,10-tetraazacyclotetradecan-12-yl)isobutyramide], the IC50 in test [1] (read-out: MOLM-13 IC50 (μM)) was > 10 µM.
On the same count and under the same terms, as for `CC[C@@H]1NC(=O)[C@H](CCCNC2=NCC(C)CN2)NC(=O)[C@](C)(NC(=O)C(C)C)CCNC(=O)[C@@H](CC2CCCCC2)NC1=O` (stereo partly drawn) [Cpd. No. 97, N-((3R,6S,9S,12R)-3-(cyclohexylmethyl)-6-ethyl-12-methyl-9-(3-((5-methyl-1,4,5,6-tetrahydropyrimidin-2-yl)amino)propyl)-2,5,8,11-tetraoxo-1,4,7,10-tetraazacyclotetradecan-12-yl)isobutyramide], the figure is > 10 µM.
The same measure, in the same setting: as for `CC[C@@H]1NC(=O)[C@H](CCCNC(=N)N)NC(=O)[C@](C)(NC(=O)C(C)C)CCNC(=O)[C@@H](c2ccccc2OC)NC1=O` [Cpd. No. 99, N-((3R,6S,9S,12R)-6-ethyl-9-(3-guanidinopropyl)-3-(2-methoxyphenyl)-12-methyl-2,5,8,11-tetraoxo-1,4,7,10-tetraazacyclotetradecan-12-yl)isobutyramide] (Isobutyryl-[dαMeDab]R[Abu][dPhg(2-OMe)]; lactam 1-C), the figure is 1.6 µM; as for `CC[C@@H]1NC(=O)[C@H](CCCNC(=N)N)NC(=O)[C@](C)(NC(=O)C(C)C)CCNC(=O)[C@@H](c2ccc(Cl)cc2)NC1=O` [Cpd. No. 100, N-((3R,6S,9S,12R)-3-(4-chlorophenyl)-6-ethyl-9-(3-guanidinopropyl)-12-methyl-2,5,8,11-tetraoxo-1,4,7,10-tetraazacyclotetradecan-12-yl)isobutyramide], 2.2 µM.
